Assay results: ChEMBL document CHEMBL3885861, “Open TG-GATES”

Organism: Rattus norvegicus
Assay: Open TG-GATES - Regimen: Single
Type: toxicity, organism-based, Sprague-Dawley
Parameters: regimen Single, gender Male, age 6 weeks
Settings: in vivo, po, route gavage; for TP / gamma-GTP / ALP / AST / BUN / CRE / Ca / Cl / DBIL / GLC / IP / K / LDH / Na / PL / RALB / TBIL / TG / TC: tissue Plasma; for APTT / Bas / Eos / Fbg / Ht / MCH / MCHC / MCV / Mono / Plat / RBC / Ret / WBC / PT: tissue Blood; for KIDNEY_L / KIDNEY_R / KIDNEY_TOTAL: tissue Kidney; for LIVER: tissue Liver
[1] = 200 mg/kg, 24 h, dose level Middle
[2] = 600 mg/kg, 3 h, dose level High
[3] = 600 mg/kg, 6 h, dose level High
[4] = 600 mg/kg, 9 h, dose level High
[5] = 600 mg/kg, 24 h, dose level High

CC(=O)Nc1nnc(S(N)(=O)=O)s1 [ACETAZOLAMIDE]
TP [1]: 5.7 g/dL | gamma-GTP [1]: 1.4 IU/L | TERMINAL_BW [2]: 215.3 g | APTT [2]: 22.2 s | Bas [2]: 0% | Eos [2]: 1.2% | Fbg [2]: 336.8 mg/dL | Ht [2]: 42.8% | MCH [2]: 21.1 pg | MCHC [2]: 31.1% | MCV [2]: 67.9 fL | Mono [2]: 2% | Plat [2]: 114.9 x10_4/uL | RBC [2]: 630.4 x10_4/ul | Ret [2]: 8.1% | WBC [2]: 60.8 x10_2/uL | KIDNEY_L [2]: 0.9 g | KIDNEY_R [2]: 1 g | KIDNEY_TOTAL [2]: 1.9 g | LIVER [2]: 9.6 g | ALP [2]: 1769.8 IU/L | AST [2]: 76 IU/L | BUN [2]: 12.2 mg/dL | CRE [2]: 0.2 mg/dL | Ca [2]: 11.1 mg/dL | Cl [2]: 112 meq/L | DBIL [2]: 0 mg/dL | GLC [2]: 188.6 mg/dL | IP [2]: 10.5 mg/dL | K [2]: 4 meq/L | LDH [2]: 209.8 IU/L | Na [2]: 140.2 meq/L | PL [2]: 140.4 mg/dL | RALB [2]: 3.3 g/dL | TBIL [2]: 0.008 mg/dL | TG [2]: 24.8 mg/dL | TP [2]: 5.9 g/dL | gamma-GTP [2]: 1.2 IU/L | TERMINAL_BW [3]: 204.7 g | APTT [3]: 23.6 s | Bas [3]: 0% | Eos [3]: 1.4% | Fbg [3]: 340.8 mg/dL | Ht [3]: 42.8% | MCH [3]: 21.2 pg | MCHC [3]: 31.1% | MCV [3]: 68 fL | Mono [3]: 2.4% | PT [3]: 16.8 s | Plat [3]: 120.2 x10_4/uL | RBC [3]: 628.2 x10_4/ul | Ret [3]: 8.5% | WBC [3]: 85.2 x10_2/uL | KIDNEY_L [3]: 0.9 g | KIDNEY_R [3]: 1 g | KIDNEY_TOTAL [3]: 1.9 g | LIVER [3]: 8.3 g | ALP [3]: 1569.2 IU/L | AST [3]: 69 IU/L | BUN [3]: 10.6 mg/dL | CRE [3]: 0.2 mg/dL | Ca [3]: 11.1 mg/dL | Cl [3]: 113 meq/L | DBIL [3]: 0 mg/dL | GLC [3]: 185.2 mg/dL | IP [3]: 10.1 mg/dL | K [3]: 3.8 meq/L | LDH [3]: 205.4 IU/L | Na [3]: 138.4 meq/L | PL [3]: 149.8 mg/dL | RALB [3]: 3.4 g/dL | TBIL [3]: 0.016 mg/dL | TC [3]: 90.4 mg/dL | TG [3]: 23 mg/dL | TP [3]: 6 g/dL | gamma-GTP [3]: 1.2 IU/L | TERMINAL_BW [4]: 201.6 g | APTT [4]: 24 s | Bas [4]: 0% | Eos [4]: 0.8% | Fbg [4]: 344.6 mg/dL | Ht [4]: 43% | MCHC [4]: 30.9% | MCV [4]: 66.6 fL | Mono [4]: 2.2% | PT [4]: 16 s | Plat [4]: 123.6 x10_4/uL | RBC [4]: 645.4 x10_4/ul | Ret [4]: 8.8% | WBC [4]: 51.5 x10_2/uL | KIDNEY_L [4]: 0.9 g | KIDNEY_R [4]: 0.9 g | KIDNEY_TOTAL [4]: 1.9 g | LIVER [4]: 7.7 g | ALP [4]: 1753.6 IU/L | AST [4]: 59 IU/L | BUN [4]: 13.4 mg/dL | CRE [4]: 0.2 mg/dL | Ca [4]: 11 mg/dL | Cl [4]: 114.2 meq/L | DBIL [4]: 0 mg/dL | GLC [4]: 172.6 mg/dL | IP [4]: 10 mg/dL | K [4]: 3.8 meq/L | LDH [4]: 176.4 IU/L | Na [4]: 138.6 meq/L | PL [4]: 127.8 mg/dL | RALB [4]: 3.4 g/dL | TBIL [4]: 0.02 mg/dL | TC [4]: 85 mg/dL | TG [4]: 11.4 mg/dL | TP [4]: 6.1 g/dL | gamma-GTP [4]: 1.2 IU/L | TERMINAL_BW [5]: 199.5 g | APTT [5]: 22.2 s | Bas [5]: 0% | Eos [5]: 1% | Fbg [5]: 359.2 mg/dL | Ht [5]: 41.1% | MCH [5]: 20.3 pg | MCHC [5]: 32.8% | MCV [5]: 61.9 fL | Mono [5]: 2.2% | PT [5]: 16.9 s | Plat [5]: 112.5 x10_4/uL | RBC [5]: 663.8 x10_4/ul | Ret [5]: 8% | WBC [5]: 74.5 x10_2/uL | KIDNEY_L [5]: 0.9 g | KIDNEY_R [5]: 0.9 g | KIDNEY_TOTAL [5]: 1.9 g | LIVER [5]: 7.9 g | ALP [5]: 1549.4 IU/L | AST [5]: 49.6 IU/L | BUN [5]: 18.8 mg/dL | CRE [5]: 0.2 mg/dL | Ca [5]: 10.7 mg/dL | Cl [5]: 116.8 meq/L | DBIL [5]: 0 mg/dL | IP [5]: 8.2 mg/dL | K [5]: 3.8 meq/L | LDH [5]: 205.2 IU/L | Na [5]: 140.6 meq/L | PL [5]: 137.4 mg/dL | RALB [5]: 3.5 g/dL | TBIL [5]: 0.016 mg/dL | TC [5]: 89.6 mg/dL | TG [5]: 26.8 mg/dL | TP [5]: 6 g/dL | gamma-GTP [5]: 1.2 IU/L
